Measurements: patent US5185352A, “Alkoxy-4(1H)-pyridone derivatives, processes for the preparation thereof and pharmaceutical compositions containing them” (Goedecke Aktiengesellschaft, priority 1988, dated 1993)
pEC50, pIC50: −log10 of the molar value. Where a name gives a salt, the structure may show the parent alone. Read-outs that look alike come from different tables or passages of the source.

Legend:
[1] = tested on: Noradrenaline-Precontracted Aorta; assay: Endothelium-dependent smooth muscle relaxation of noradrenaline-precontracted rabbit aorta rings in an organ bath; details: Oryctolagus cuniculus, noradrenaline 3 × 10^-7 mol/L
Method: Rabbit aorta rings are fixed in an organ bath filled with physiological salt solution (Krebs-Henseleit) between L-shaped wires. The solution is gassed with carbogen. Contractions are initiated by 3×10^-7 noradrenaline. When the tension has reached a stable plateau, compounds of the instant invention are added. The effect of the compounds first is tested on organ preparation with functioning endothelium. In an additional experiment in order to test whether the relaxation is endothelium-dependent the compounds are tested with aorta rings with damaged endothelium. For an endothelium-dependent relaxation, effected by the endothelium-derived relaxating factor (EDRF), the following characteristics are required: absence of the effect in preparations with damaged endothelium, no inhibition of the relaxation by indomethazine and inhibition of the relaxation by NDGA (nordihydro-guaiaretic acid), methylene blue and gossypol. These criteria are completely met by the compounds listed in Table II, and one can conclude, that the compounds of the instant invention act in an unexpected manner by the release of EDRF, and thereby relax vascular smooth muscle.

[2] = target: calcium- and phospholipid-dependent protein kinase (PKC); assay: Inhibition of the activity of protein kinase C (incorporation of P^32-labelled phosphate into histone H-1); assay type: biochemical; details: PKC enriched from rat brain; histone H-1 substrate; 5 min, 30° C.; pH 7.5
From the text: For the clarification of the inhibiting influence of compounds of formula I according to the present invention on the calcium- and phospholipid-dependent protein kinase (PKC), this enzyme activity was enriched from rat brain. Using the purification steps described in the literature (J. Biol. Chem., 260, 15718-15722/1985), in the case of a purification consisting of two steps, there was utilized the property of the enzyme to bind to cell membranes in the presence of calcium and to be dissolved off again by calcium chelators (EGTA). In the first enrichment step, there took place the binding of the PKC to membranes of the rat brain and in the second step on so-called inside-out vesicles or erythrocytes. After dissolving off from the erythrocyte membranes and rebuffering, the PKC preparation was present in 10 mM HEPES, 1 mM DTT, 0.1% PEG 20000, pH 7.5. Under these conditions, it could be stored at -70° C. for several months without loss of activity.
The activity of the enzyme was determined via the incorporation of P^32 -labelled phosphate into the protein histone H-1 (Sigma Type III) which can be phosphorylated by PKC.
The test thereby contains the following components: 50 mM HEPES-NaOH (pH 7.5), 5 mM magnesium chloride, 1 mM DTT, 4 μm. free calcium ions, 10 μMaTP, 1 μg phosphatidylserine, 0.2 μg 1,2-diolein, as well as 40 μg histone H-1 and optionally the test substance.
The batch is preincubated for 4 minutes at 30° C. and the reaction then started by the addition of 5 nM PKC. After incubating for 5 minutes at 30° C., the reaction is stopped with 10% TCA and the samples then filtered off. The phosphate incorporation is determined by Cerenkov counting in a scintillation counter. The kinase activity measured in the absence of the test substance was, in each case, taken as being 100% and the inhibiting action of the compounds of formula I referred thereto as percentages.

[3] = damaged endothelium, read-out: Relaxation of Noradrenaline-Precontracted Aorta, EC50, Damaged Endothelium
[4] = functioning endothelium, read-out: Relaxation of Noradrenaline-Precontracted Aorta, EC50, Functioning Endothelium

**Q.** `CC(=O)OCC[N+](C)(C)C` [Acetylcholine, reference compound] was tested. Which pEC50 [1, 3] did it give?
**A.** The pEC50 was under 4.00.

**Q.** What about the pEC50 [1, 4] of the same compound?
**A.** The pEC50 was 7.52.

**Q.** How did the pIC50 [2] turn out when `CCCCCCCCCCCCCCCCCCOc1cn(Cc2ccccc2)c(CNCCCN(C)C)cc1=O` [Example 54, 1-Benzyl-2-[N-(3-dimethylaminopropyl)-aminomethyl]-5-octadecyloxy-4(1H)-pyridone dioxalate] was run?
**A.** The pIC50 was 5.85.

**Q.** What about the pEC50 [1, 3] of the same compound?
**A.** The pEC50 was under 4.00.

**Q.** What about the pEC50 [1, 4] of the same compound?
**A.** Its pEC50 is 4.82.

**Q.** How did the pIC50 [2] turn out when `CCCCCCCCCCCCCCCCCCOc1cn(Cc2ccc(Cl)cc2)c(CNCCCN(C)C)cc1=O` [Example 69, 1-(4-Chlorobenzyl)-2-[N-(3-dimethylamino-propyl)aminomethyl]-5-octadecyloxy-4(1H)-pyridone difumarate 1.25 hydrate] was run?
**A.** The pIC50 was 5.82.

**Q.** What about the pEC50 [1, 3] of the same compound?
**A.** The pEC50 was under 4.00.

**Q.** And the pEC50 [1, 4]?
**A.** The pEC50 was 4.52.

**Q.** `CCCCCCCCCCCCCCCCCCOc1cn(Cc2ccccc2)c(CNCCCN(C)Cc2ccccc2)cc1=O` [Example 71, 1-Benzyl-2-[N-(3-N-benzyl-N-methylaminopropyl)aminomethyl]-5-octadecyloxy-4(1H)-pyridone difumarate] was tested. Which pIC50 [2] did it give?
**A.** Its pIC50 is 5.74.

**Q.** What about the pEC50 [1, 3] of the same compound?
**A.** Its pEC50 is under 4.00.

**Q.** What about the pEC50 [1, 4] of the same compound?
**A.** The pEC50 was 5.52.

**Q.** How did the pIC50 [2] turn out when `CCCCCCCCCCCCCCCCCCOc1cn(Cc2ccccc2)c(CN2CCN(Cc3ccccc3)CC2)cc1=O` [Example 88, 1-[(1-Benzyl-5-octadecyloxy-4(1H)-pyridon-2-yl)methyl]-4-benzylpiperazine] was run?
**A.** Its pIC50 is 5.52.

**Q.** And the pEC50 [1, 3]?
**A.** The pEC50 was under 4.00.

**Q.** What about the pEC50 [1, 4] of the same compound?
**A.** The pEC50 was 5.47.

**Q.** How did the pIC50 [2] turn out when `CCCCCCCCCCCCCCCCCCOc1cn(Cc2ccccc2)c(CN2CCC(CN)(c3ccccc3)CC2)cc1=O` [Example 101, 1-[(1-Benzyl-5-octadecyloxy-4(1H)-pyridon-2-yl)methyl]-4-aminomethyl-4-phenylpiperidine trihydrochloride] was run?
**A.** The pIC50 was 5.82.

**Q.** And the pEC50 [1, 3]?
**A.** Its pEC50 is under 4.00.

**Q.** And the pEC50 [1, 4]?
**A.** The pEC50 was 4.70.

**Q.** `CCCCCCCCCCCCCCCCCCOc1cn(Cc2ccc(C)cc2)c(COCCCN(C)C)cc1=O` [Example 106, 2-(3-Dimethylaminopropoxymethyl)-1-(4-methylbenzyl)-5-octadecyloxy-4(1H)-pyridone dihydrochloride sesquihydrate] was tested. Which pIC50 [2] did it give?
**A.** Its pIC50 is 5.62.

**Q.** How did the pIC50 [2] turn out when `CCCCCCCCCCCCCCCCCCOc1cn(Cc2ccc(OC)cc2)c(COCCCN(C)C)cc1=O` [Example 107, 2-(3-Dimethylaminopropoxymethyl)-1-(4-methoxybenzyl)-5-octadecyloxy-4(1H)-pyridone dihydrochloride 1/4 hydrate] was run?
**A.** Its pIC50 is 5.54.

**Q.** How did the pIC50 [2] turn out when `CCCCCCCCCCCCCCCCCCOc1cn(CC2CCCCC2)c(COCCCN(C)C)cc1=O` [Example 108, 1-Cyclohexylmethyl-2-(3-dimethylaminopropoxymethyl)-5-octadecyloxy-4(1H)-pyridone oxalate] was run?
**A.** Its pIC50 is 5.54.

**Q.** `CCCCCCCCCCCCCCCCCCOc1cn(Cc2ccc(Cl)cc2)c(COCCCN(C)C)cc1=O` [Example 109, 1-(4-Chlorobenzyl)-2-(3-dimethylaminopropoxymethyl)-5-octadecyloxy-4(1H)-pyridone dihydrochloride 2.5 hydrate] was tested. Which pIC50 [2] did it give?
**A.** The pIC50 was 5.59.

**Q.** With `CCCCCCCCCCCCCCCCCCOc1cn(Cc2ccccc2)c(CCC(=O)OC)cc1=O` [Example 114, Methyl 3-[1-benzyl-5-octadecyloxy-4(1H)-pyridon-2-yl]-propionate] as the compound, how does the pIC50 [2] read?
**A.** Its pIC50 is 5.05.

**Q.** `CCCCCCCCCCCCCCCCCCOc1cn(Cc2ccccc2)c(CCC(N)=O)cc1=O` [Example 116, 3-[1-benzyl-5-octadecyloxy-4(1H)-pyridon-2-yl]-propionic acid amide] was tested. Which pIC50 [2] did it give?
**A.** The pIC50 was 5.05.
